Measurements published in patent US10675293B2, “Nucleoside agents for the reduction of the deleterious activity of extended nucleotide repeat containing genes” (The Board of Trustees of the Leland Stanford Junior …, priority 2015, dated 2020).
Entries after “also recorded” stand apart in the source; their conditions may differ.

What was measured:
total Huntingtin protein = assay: Western blot of total HTT in Huntington's disease patient iPSC ND36999; type: cell-based, human; conditions: iPSC with 180 CAG repeats, 24 hr
Description: (§1) Cell samples were lysed in 30 mM Tris-HCl, pH 8.0, 5 mM NaCl, 0.1% Triton X-100 for 10 min on ice. The supernatants from spinning (14 k rpm for 10 min) were collected. The protein concentrations were determined by BCA assay (Pierce, ThermoFisher). Equal amounts of protein were loaded onto 4-12% gel. After electrophoresis, the gels were transferred to nitrocellulose membranes by wet transfer at 35V for 16 hr. The protein level of mutant HTT, total HTT and tubulin were determined by immunoblotting with anti-poly Glutamine (MAB1574 from Millipore), anti-Huntingtin protein (MAB2166 from Millipore) and anti-alpha tubulin (AJ1034a from ABGENT). Blots were imaged on a Li-Cor Odyssey infrared imager. The bands intensities were determined by Li-Cor Odyssey software.
(§2) To test whether the nucleoside 6-Azauridine (HD101) and (−)-6-Azauridine 2′,3′,5′-triacetate (HD106) can affect the expression of proteins with long polyQ domains, one iPSC (induced pluripotent stem cell) line ND36999, which was derived from a Huntington's disease patient who carries one allele of mutant htt gene with 180 CAG repeats, was purchased from the Coriell Institute. The iPSCs were plated into a 24-well plate coated with Matrigel. […] Cells were lysed and the protein concentrations were determined by BCA assay. […] The image (FIG. 10) was taken and the quantification was made by Li-Cor Odyssey imaging system.

Q44-GFP = assay: PolyQ-tagged GFP reporter in HEK293 cells, Q44-GFP; type: cell-based; conditions: 48 hours after transfection
Source text: CAG repeats and part of the flanking region in the first exon of Htt gene were PCR amplified from cDNA of HD patient lymphoblastoid cells containing one normal and one mutant allele (Q22 and Q44) with additional flanking restriction enzyme sites NheI. The PCR fragments were than in-frame fused with pEGFP-C1 at the end of the EGFP gene to express polyQ tagged GFP.
Normal length of poly Q (Q20) and pathogenic length of poly Q(Q44) were in-frame fused at the amino-terminus of eGFPC1 protein to generate Q44- and Q20-GFP (FIG. 8A). The plasmid carrying the polyQ tagged GFP was transfected into HEK 293 cells with greater than 90% transfection efficiency.
HEK293 cells were transiently transfected with the above mentioned GFP constructs. Five hours after transfection, cells were split among the wells of a 24-well plate and various concentrations of HD101 were added into the wells. 48 hours after transfection, cells were washed with PBS, fixed with 4% paraformaldehyde, and then nuclear stained with DAPI. The cell images were taken by fluorescent microscope (FIG. 9A) and the GFP and DAPI intensity of each field were quantitated using software Image Pro 6.2.

[1] = target: T1, Supt4h-GL1 / NGN-GL2 interaction (Homo sapiens, UniProt O00267+P63272); assay: Split Gaussia luciferase complementation assay in M2-8 (HEK-293) cells; type: cell-based; conditions: M2-8 cells, RSL1 150 nM
T1 construct: the amino terminal domain of Supt5h (NGN); expressed in transfected cells; host or cells: M2-8, a clone of 293-R1 (HEK 293), RSL1-induced
Description: ii: M2-8 is a cloned 293-R1 cell which can inducibly express pNEBR-X1-Supt4h-G1-NGN-G2 by addition of RSL1. Two point mutations (M431 and M1101) were introduced to the GL1 and GL2 for better stability according to “A high-throughput cell-based Gaussia luciferase reporter assay for identifying modulators of fibulin-3 secretion” published on J Biomol Screen. 2013 July; 18(6):647-58. The cell line was selected by Hygromycin.
Plasmids harboring the Gluc1 and Gluc2 were co-transfected in a 1:1 ratio into 293-R1 cells plated on tissue culture treated 24-well plates using Lipofectamine 2000 according to the manufacturer's instruction. […] Signal intensities (integrated 100 ms) were read on Tecan Infinite M200 or M1000.
Human genes encoding the Supt4h protein or the amino terminal domain of Supt5h (NGN) were each fused with genes that encode subunits (GLuc1 or GLuc2) of Gaussia princeps luciferase to generate Supt4h-GL1 and NGN-GL2. […] The Gausssia luciferase substrate, native Coelenterazine, was added at a final concentration of 10 μg/ml to extracts of cells containing the indicated constructs and the magnitude of luminescence was determined using a luminometer (Tecan Infinite M200) that detects light emitted by luciferase. […] The luciferase activity that is detected is very specific and results only from interaction between the Supt4h and NGN. […]

[2] = system: mutant Huntingtin protein; assay: Western blot of mutant HTT in Huntington's disease patient iPSC ND36999; type: cell-based, human; conditions: iPSC with 180 CAG repeats, 24 hr
Description: as §1, §2

O=c1cnn([C@@H]2O[C@H](CO)[C@@H](O)[C@H]2O)c(=O)[nH]1 [HD101, 6-Azauridine]
total Huntingtin protein expression level (total Huntingtin protein): little effect
Q44-GFP expression (GFP intensity normalized with DAPI) (Q44-GFP; higher concentration): down regulating both Q20 and Q44-GFP significantly
Q44-GFP expression (GFP intensity normalized with DAPI) (Q44-GFP; low concentration): down regulates
inhibition of Supt4h/NGN interaction (luciferase activity) [1]: inhibiting the interaction between Supt4h/NGN
mutant Huntingtin protein level [2]: preferentially decrease mutant Huntingtin protein in a dose dependent manner; also recorded: reduced mutant huntingtin expression in a dose dependent manner
